For 28 molecules, IC50 results are on record in patent US8871767B2, “2-arylimidazo[1,2-B]pyridazine, 2-phenylimidazo[1,2-A]pyridine, and 2-phenylimidazo[1,2-A]pyrazine derivatives” (Hengrui (USA) Ltd., priority 2010, dated 2014).

The test system of assay [1] is Hedgehog pathway activation on 10T1/2/Smo#3 cells (C3H10T1/2 cells transfected with human Smoothened receptor). Put plainly: Hedgehog pathway activation on 10T1/2/Smo#3 cells measured by ALP activity. The format is cell-based. The note with it: Mus musculus, C3H 10T1/2, 10T1/2/Smo#3 cells. The procedure, abridged:
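C3H10T1/2 cells stably expressing human Smoothened were activated with hShh-conditioned medium (10-20%) or 500 nM SAG, with test compounds present. Pathway block read as inhibited ALP activity (4-methylumbelliferyl phosphate fluorescence); viability checked by CellTiter-Blue. IC50 values reported.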

For assay [2], the system named is Hedgehog pathway activation (GLi-luciferase reporter) in Shh Light II reporter cells. Put plainly: Hedgehog pathway activation on Shh Light II reporter cells measured by luciferase activity. It is filed as cell-based. The note with it: Mus musculus, Shh Light II. The procedure, abridged:
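Shh Light II reporter cells carrying a hedgehog-responsive GLi-luciferase reporter were stimulated either with 500 nM SAG, a direct Smoothened agonist, or with conditioned media containing human Sonic Hedgehog (hShh). Test compounds were evaluated for blocking this pathway activation, quantified by luciferase activity. Cell viability was monitored in parallel with the Celltiter-Blue® assay.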

The mark [3] stands for this setting: measured by ALP activity, read-out: ALP (IC50, inhibition of Hedgehog pathway activation).
The mark [4] stands for this setting: hShh activation, read-out: Shh (IC50, inhibition of Hedgehog pathway activation).
Setting [5] is: hShh activation, ALP activity, read-out: 10T1/2/Smo#3 ALP activity (hShh Activation).
Setting [6] is: SAG activation (500 nM SAG), read-out: Shh Light II luciferase activity (SAG activation).
Setting [7] is: hShh activation, read-out: Shh Light II luciferase activity (hShh activation).

Where two headings read alike, the source gives them in different places.

On to `Cc1ccc(-c2cn3nc(-c4ccccc4Cl)ccc3n2)cc1NC(=O)C(C)(C)C` [Example 258, N-(5-(6-(2-chlorophenyl)imidazo[1,2-b]pyridazin-2-yl)-2-methylphenyl)pivalamide], for which the IC50 in assay [1] (setting [3]) came to 105 nM; in assay [2] (setting [4]), 129 nM.

As to `O=C(Nc1cc(-c2cn3nc(-c4cccnc4C(F)(F)F)ccc3n2)ccc1F)C1CCCC1` [Example 678, N-(2-fluoro-5-(6-(2-(trifluoromethyl)pyridin-3-yl)imidazo[1,2-b]pyridazin-2-yl)phenyl)cyclopentanecarboxamide], the results for the IC50 in assay [1] (setting [3]) and in assay [2] (setting [4]) were 342 nM and 139 nM, respectively.

For `Cc1ccc(-c2cn3nc(-c4ccc(C(=O)O)cc4Cl)ccc3n2)cc1NC(=O)C(C)(C)C` [compound 540], the values for the IC50 in assay [1] (setting [3]) and in assay [2] (setting [4]) were 891 nM and 447 nM, respectively.

In the case of `CC(C)(C)C(=O)Nc1cc(-c2cn3nc(-c4cccnc4Cl)ccc3n2)ccc1C(F)(F)F` [Example 334, N-(5-(6-(2-chloropyridin-3-yl)imidazo[1,2-b]pyridazin-2-yl)-2-(trifluoromethyl)phenyl)pivalamide], the IC50 worked out at 213 nM in assay [1] (setting [3]) and 278 nM in assay [2] (setting [4]).

As to `Cc1c(-c2ccccn2)nn2cc(-c3ccc(C(F)(F)F)c(NC(=O)C(C)(C)C)c3)nc2c1C` [Example 202, N-(5-(7,8-dimethyl-6-(pyridin-2-yl)-imidazo[1,2-b]pyridazin-2-yl)-2-(trifluoromethyl)phenyl)pivalamide], the results for the IC50 in assay [1] (setting [3]) and in assay [2] (setting [4]) were 1320 nM and 221 nM, respectively.

As for `COc1ccc2nc(-c3cc(NC(=O)C(C)(C)C)c(C)cc3Cl)cn2n1` [Example 132, N-(4-chloro-5-(6-methoxyimidazo[1,2-b]pyridazin-2-yl)-2-methylphenyl)pivalamide], the figures for the IC50 in assay [1] (setting [3]) and in assay [2] (setting [4]) were more than 10000 nM and 1490 nM, respectively.

As to `Cc1cc(C)c(-c2cn3ncccc3n2)cc1NC(=O)C(C)(C)C` [Example 107, N-(5-(imidazo[1,2-b]pyridazin-2-yl)-2,4-dimethylphenyl)pivalamide], the IC50 in assay [1] (setting [3]) was determined as 7270 nM; in assay [2] (setting [4]) it was 2770 nM.

Regarding `CCOc1ccc2nc(-c3ccc(C(F)(F)F)c(NC(=O)CC(C)(C)C)c3)cn2n1` [Example 187, N-(5-(6-ethoxyimidazo[1,2-b]pyridazin-2-yl)-2-(trifluoromethyl)phenyl)-3,3-dimethylbutanamide], the IC50 in assay [1] (setting [3]) and in assay [2] (setting [4]) was more than 10000 nM in each case.

Regarding `Cc1ccc(-c2cn3ncccc3n2)cc1NC(=O)C(C)(C)C` [Example 105, N-(5-(imidazo[1,2-b]pyridazin-2-yl)-2-methylphenyl)pivalamide], the IC50 was 300 to 3000 nM in assay [1] (setting [5]); 1810 nM in assay [1] (setting [3]); 3000 to 30000 nM in assay [2] (setting [6]); 1110 nM in assay [2] (setting [4]); 300 to 3000 nM in assay [2] (setting [7]).

Take `COc1cnccc1-c1ccc2nc(-c3ccc(C(F)(F)F)c(NC(=O)C(C)(C)C)c3)cn2n1` [Example 382, N-(5-(6-(3-methoxypyridin-4-yl)imidazo[1,2-b]pyridazin-2-yl)-2-(trifluoromethyl)phenyl)pivalamide]: the IC50 in assay [1] (setting [3]) came to 536 nM; in assay [2] (setting [4]), 1220 nM.

For the molecule `CC(C)(C)C(=O)Nc1cc(-c2cn3nc(-c4cc(C(F)(F)F)ccc4F)ccc3n2)ccc1C(F)(F)F` [Example 207, N-(5-(6-(2-fluoro-5-(trifluoromethyl)phenyl)imidazo[1,2-b]pyridazin-2-yl)-2-(trifluoromethyl)phenyl)pivalamide], the IC50 was less than 300 nM in assay [1] (setting [5]); 43 nM in assay [1] (setting [3]); less than 300 nM in assay [2] (setting [6]); 43 nM in assay [2] (setting [4]); less than 300 nM in assay [2] (setting [7]).

With `O=C(Nc1cc(-c2cn3nc(-c4cccnc4C(F)(F)F)ccc3n2)ccc1Cl)C1CC1` [Example 676, N-(2-chloro-5-(6-(2-(trifluoromethyl)pyridin-3-yl)imidazo[1,2-b]pyridazin-2-yl)phenyl)cyclopropanecarboxamide], the IC50 was found to be 721 nM in assay [1] (setting [3]) and 111 nM in assay [2] (setting [4]).

Regarding `CCc1ccc(-c2cn3nc(-c4cccnc4C(F)(F)F)ccc3n2)cc1NC(=O)C1CCCCC1` [Example 687, N-(2-ethyl-5-(6-(2-(trifluoromethyl)pyridin-3-yl)imidazo[1,2-b]pyridazin-2-yl)phenyl)cyclohexanecarboxamide], the IC50 in assay [1] (setting [3]) was 1590 nM; in assay [2] (setting [4]), 463 nM.

For `Cc1ccc(-c2cn3nc(-c4ccc(C(N)=O)cc4C(F)(F)F)ccc3n2)cc1NC(=O)C(C)(C)C` [compound 508], the IC50 in assay [1] (setting [5]) is less than 300 nM; in assay [1] (setting [3]) it was 110 nM; in assay [2] (setting [6]), 300 to 3000 nM; in assay [2] (setting [4]), 92 nM; in assay [2] (setting [7]), less than 300 nM.

In the case of `Cc1ccc2nc(-c3ccc(C(F)(F)F)c(NC(=O)C(C)(C)C)c3)cn2n1` [Example 142, N-(5-(6-methylimidazo[1,2-b]pyridazin-2-yl)-2-(trifluoromethyl)phenyl)pivalamide], the IC50 in assay [1] (setting [3]) came to 365 nM; in assay [2] (setting [4]) it was 1410 nM.

On to `CCOC(=O)CCCCCOc1ccc(C(F)(F)F)c(-c2ccc3nc(-c4ccc(C)c(NC(=O)C(C)(C)C)c4)cn3n2)c1` [Example 424, ethyl 6-(3-(2-(4-methyl-3-pivalamidophenyl)imidazo[1,2-b]pyridazin-6-yl)-4-(trifluoromethyl)phenoxy)hexanoate], for which the IC50 in assay [1] (setting [3]) worked out at 4100 nM; in assay [2] (setting [4]), 7460 nM.

As for `CC1CN(C(=N)N)CCN1c1ccc2nc(-c3ccc(C(F)(F)F)c(NC(=O)C(C)(C)C)c3)cn2n1` (centres unmarked) [compound 571], the IC50 came to 554 nM in assay [1] (setting [3]) and 129 nM in assay [2] (setting [4]).

For the molecule `CC(=O)Nc1ccccc1-c1ccc2nc(-c3ccc(C)c(NC(=O)C(C)(C)C)c3)cn2n1` [Example 289, N-(5-(6-(2-acetamidophenyl)imidazo[1,2-b]pyridazin-2-yl)-2-methylphenyl)pivalamide], the IC50 in assay [1] (setting [3]) is 90 nM; in assay [2] (setting [4]), 284 nM.

For the molecule `CN(C)S(=O)(=O)c1cc(-c2cn3nc(-c4cccnc4C(F)(F)F)ccc3n2)ccc1Cl` [Example 700, 2-chloro-N,N-dimethyl-5-(6-(2-(trifluoromethyl)pyridin-3-yl)imidazo[1,2-b]pyridazin-2-yl)benzenesulfonamide], the IC50 is more than 10000 nM in assay [1] (setting [3]) and 2500 nM in assay [2] (setting [4]).

Regarding `CC(C)(C)OC(=O)n1cccc1-c1ccc2nc(-c3ccc(C(F)(F)F)c(NC(=O)C(C)(C)C)c3)cn2n1` [Example 178, tert-butyl 2-(2-(3-pivalamido-4-(trifluoromethyl)phenyl)imidazo[1,2-b]pyridazin-6-yl)-1H-pyrrole-1-carboxylate], the IC50 amounted to 607 nM in assay [1] (setting [3]) and 468 nM in assay [2] (setting [4]).

Consider `Cc1ccc(-c2cn3nc(-c4cccnc4C(F)(F)F)ccc3n2)cc1-c1cscn1` [compound 512], for which the IC50 was found to be 205 nM in assay [1] (setting [3]) and 311 nM in assay [2] (setting [4]).

With `Cc1ccc(-c2cn3nc(N4CCC(O)CC4)ccc3n2)cc1NC(=O)C(C)(C)C` [Example 286, N-(5-(6-(4-hydroxypiperidin-1-yl)imidazo[1,2-b]pyridazin-2-yl)-2-methylphenyl)pivalamide], the IC50 in assay [1] (setting [3]) was 127 nM; in assay [2] (setting [4]) it was 193 nM.

As to `O=C(Nc1cc(-c2cn3nc(-c4cccnc4C(F)(F)F)ccc3n2)ccc1Cl)C1CCCCC1` [Example 670, N-(2-chloro-5-(6-(2-(trifluoromethyl)pyridin-3-yl)imidazo[1,2-b]pyridazin-2-yl)phenyl)cyclohexanecarboxamide], the figures for the IC50 in assay [1] (setting [3]) and in assay [2] (setting [4]) were 620 nM and 61 nM, respectively.

As for `Cc1ccc(-c2cn3nc(-c4cccc(N(C)C)c4)ccc3n2)cc1NC(=O)C(C)(C)C` [Example 290, N-(5-(6-(3-(dimethylamino)phenyl)imidazo[1,2-b]pyridazin-2-yl)-2-methylphenyl)pivalamide], the IC50 in assay [1] (setting [3]) was determined as 296 nM; in assay [2] (setting [4]), 321 nM.

On to `Cc1ccc(-c2cn3nc(-c4ccnc(F)c4)ccc3n2)cc1NC(=O)C(C)(C)C` [Example 365, N-(5-(6-(2-fluoropyridin-4-yl)imidazo[1,2-b]pyridazin-2-yl)-2-methylphenyl)pivalamide], for which the values for the IC50 in assay [1] (setting [3]) and in assay [2] (setting [4]) were 360 nM and 124 nM, respectively.

In the case of `CC(C)(C)C(=O)Nc1cc(-c2cn3nc(-c4ccc(C(F)(F)F)cc4)ccc3n2)ccc1C(F)(F)F` [Example 210, N-(2-(trifluoromethyl)-5-(6-(4-(trifluoromethyl)phenyl)imidazo[1,2-b]pyridazin-2-yl)phenyl)pivalamide], the results for the IC50 in assay [1] (setting [3]) and in assay [2] (setting [4]) were 375 nM and 223 nM, respectively.

In the case of `CCc1ccc(-c2cn3nc(-c4cccnc4C(F)(F)F)ccc3n2)cc1NC(=O)N1CCCC1` [Example 694, N-(2-ethyl-5-(6-(2-(trifluoromethyl)pyridin-3-yl)imidazo[1,2-b]pyridazin-2-yl)phenyl)pyrrolidine-1-carboxamide], the IC50 in assay [1] (setting [3]) was 174 nM; in assay [2] (setting [4]) it was 339 nM.

Turning to `CC(C)(C)C(=O)Nc1cc(-c2cn3nc(-c4ccc(F)cc4)ccc3n2)ccc1C(F)(F)F` [Example 143, N-(5-(6-(4-fluorophenyl)imidazo[1,2-b]pyridazin-2-yl)-2-(trifluoromethyl)phenyl)pivalamide], the IC50 was found to be 2690 nM in assay [1] (setting [3]) and 466 nM in assay [2] (setting [4]).
